Results as given in the supplement of paper PMC4862054.

Columns and labels:
Experiment in all cases: normalised response (% of control), CellTiter-Glo; higher = more viable cells (100 = DMSO, 0 = benzethonium chloride kill control)
Settings in all cases: incubation time: 72 h
[1] = system: BT-549
In short: (§1)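 Every value is a normalised signal taken at one concentration of a dilution series. Compound was placed in 384-well plates at 5 concentrations in 10-fold steps over a compound-specific 10,000-fold range, and 20 µl of breast cancer cell suspension was seeded onto it. After 72 h, CellTox Green fluorescence (485/520 nm) was measured first and CellTiter-Glo luminescence second, following 10 min at room temperature. Each plate was scaled to 0.1 % DMSO (100) and a positive kill control (0).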

[2] = system: HCC1937
In short: as §1

[3] = system: HCC1599
In short: as §1

[4] = system: MDA-MB-453
In short: as §1

[5] = system: Hs578T
In short: as §1

[6] = system: DU-4475
In short: as §1

[7] = system: CAL-51
In short: as §1

[8] = system: CAL-85-1
In short: as §1

[9] = system: CAL-148
In short: as §1

[10] = system: HCC1143
In short: as §1

[11] = system: MDA-MB-468
In short: as §1

[12] = system: MDA-MB-436
In short: as §1

[13] = system: MFM-223
In short: as §1

[14] = system: CAL-120
In short: as §1

[15] = system: HDQ-P1
In short: as §1

[16] = system: SK-BR-3
In short: as §1

[17] = system: MDA-MB-231
In short: as §1

[18] = system: BT-474
In short: as §1

[19] = system: MCF-10A
In short: as §1

| Structure (SMILES) | normalised response [1] [%] | normalised response [2] [%] | normalised response [3] [%] | normalised response [4] [%] | normalised response [5] [%] | normalised response [6] [%] | normalised response [7] [%] | normalised response [8] [%] | normalised response [9] [%] | normalised response [10] [%] | normalised response [11] [%] | normalised response [12] [%] | normalised response [13] [%] | normalised response [14] [%] | normalised response [15] [%] | normalised response [16] [%] | normalised response [17] [%] | normalised response [18] [%] | normalised response [19] [%] |
| --- | --- | --- | --- | --- | --- | --- | --- | --- | --- | --- | --- | --- | --- | --- | --- | --- | --- | --- | --- |
| C[C@]12C=CC(=O)C=C1CC[C@@H]1[C@@H]2[C@@H](O)C[C@@]2(C)[C@H]1CC[C@]2(O)C(=O)CO [Prednisolone] (10 nM) | 99.8 | 100 | 97.6 | 106 | 101 | 106 | 99.4 | 102 | 113 | 100 | 105 | 95.9 | 104 | 103 | 100 | 112 | 108 | 112 | 112 |
| Cc1nc(Nc2ncc(C(=O)Nc3c(C)cccc3Cl)s2)cc(N2CCN(CCO)CC2)n1 [Dasatinib] (1 nM) | 103 | 99.6 | 115 | 101 | 103 | 96.4 | 106 | 101 | 93.7 | 97.9 | 95.6 | 94.5 | 97.7 | 98.9 | 93.5 | – | 87.9 | 93.5 | 90 |
| C[C@]12C=CC(=O)C=C1CC[C@@H]1[C@@H]2[C@@H](O)C[C@@]2(C)[C@H]1CC[C@]2(O)C(=O)CO [Prednisolone] (1 nM) | 112 | 96.9 | 102 | 112 | 102 | 108 | 84.8 | 96.9 | 110 | 96.9 | 106 | 102 | 102 | 110 | 101 | 110 | 102 | 106 | 104 |
| CO[C@@H](C(=O)N1Cc2[nH]nc(NC(=O)c3ccc(N4CCN(C)CC4)cc3)c2C1)c1ccccc1 [Danusertib] (10 nM) | 99.7 | 93.8 | 98.1 | 103 | 99.2 | 102 | 113 | 94.9 | 95.7 | 95.7 | 87.1 | 105 | 103 | 93.4 | 97.9 | – | 96.6 | 102 | 103 |
| COc1nc(N)nc2c1ncn2[C@@H]1O[C@H](CO)[C@@H](O)[C@@H]1O [Nelarabine] (1 nM) | 102 | 88.8 | 105 | 90.4 | 94.8 | 89.5 | 117 | 94.9 | 84.1 | 92.3 | 84 | 86 | 88.2 | 94.5 | 90.5 | 86.1 | 98.1 | 87.9 | 79.1 |
| Nc1ccccc1NC(=O)c1ccc(CNc2nccc(-c3cccnc3)n2)cc1 [Mocetinostat] (1 nM) | 98.5 | 102 | 91.5 | 114 | 99.3 | 105 | 85.2 | 101 | 109 | 96.7 | 101 | 111 | 98.1 | 102 | 101 | 103 | 103 | 100 | 91.6 |
| CO[C@@H](C(=O)N1Cc2[nH]nc(NC(=O)c3ccc(N4CCN(C)CC4)cc3)c2C1)c1ccccc1 [Danusertib] (1 nM) | 102 | 95.5 | 121 | 110 | 98 | 99 | 101 | 96.3 | 98.2 | 91.5 | 101 | 103 | 94.8 | 99.1 | 93.9 | 90.8 | 104 | 101 | 94.2 |
| Cc1c(Cn2c(C)nc3c(C(=O)O)cc(N4CCOCC4)cc32)cccc1C(F)(F)F (10 nM) | 94.8 | 98.8 | 118 | 100 | 105 | 102 | 79.4 | 99.5 | 112 | 104 | 105 | 98.9 | 104 | 99.5 | 101 | 100 | 107 | 101 | 118 |
| CS(=O)(=O)N1CCN(Cc2cc3nc(-c4cccc5[nH]ncc45)nc(N4CCOCC4)c3s2)CC1 [Pictilisib] (1 nM) | 104 | 95 | 96.8 | 112 | 99.7 | 104 | 102 | 119 | 93.1 | – | 99.5 | 91.1 | 104 | 93.9 | 97.3 | 107 | 101 | 92.7 | 102 |
| Nc1ccccc1NC(=O)c1ccc(CNc2nccc(-c3cccnc3)n2)cc1 [Mocetinostat] (10 nM) | 98.3 | 104 | 94.3 | 105 | 103 | 105 | 129 | 95.7 | 98.1 | 97.6 | 101 | 99.1 | 100 | 97 | 110 | – | 103 | 98.4 | 106 |
